Values of other authors as cited in patent US20100183693A1 (priority 2005, published 2010).
Entries after “also recorded” stand apart in the source; their conditions may differ. Read-outs that look alike come from different tables or passages of the source.

SMILES | Effectiveness of Biocides (rank order) (pH 6.8) | Effectiveness of Biocides (rank order) (pH 8)
O=[O+][O-] [Sample O3, ozone] | BCDMH < ozone; also recorded: NaOCl < ozone | NaOCl < ozone
[O][Cl+][O-] [ClO2, chlorine dioxide] | Cl2 < NaOCl < HOCl + NaBr < ClO2 <; also recorded: ClO2 < HOCl + NaBr < BCDMH < Cl2 < | HOCl + NaBr < ClO2 < BCDMH < Cl2 <
CC1(C)C(=O)N(Cl)C(=O)N1Br [BCDMH, bromo-chlorodimethyl hydantoin] | BCDMH < ozone; also recorded: ClO2 < HOCl + NaBr < BCDMH < Cl2 < | HOCl + NaBr < ClO2 < BCDMH < Cl2 <
[Na+].[O-]Cl [NaOCl] | Cl2 < NaOCl < HOCl + NaBr < ClO2 <; also recorded: NaOCl < ozone | NaOCl < ozone
